Laboratory results: US5711966A, “Method of treating malaria with desbutylhalofantrine” (priority 1996, dated 1998)
“Also recorded” adds a separate entry of the source. Like-named read-outs stand apart in the source and are kept apart here.

Legend:
[1] = tested on: delayed rectifier potassium channel; assay: Block of repolarizing current (delayed rectifier potassium channel) in isolated ventricular myocytes, whole cell patch-clamp; assay type: cell-based; conditions: isolated feline myocytes
Experimental: (§1) A comparison of the parent drug, halofantrine with the metabolite desbutylhalofantrine was conducted to determine which agent was primarily responsible for QT interval prolongation. The effects of halofantrine and its active metabolite (N-desbutylhalofantrine) on repolarization were examined in an isolated perfused heart model. […] In an attempt to further elucidate the mechanism for QT interval prolongation, the effects of racemic halofantrine, its stereoisomers and N-desbutylhalofantrine on repolarizing currents in isolated ventricular myocytes were studied using patch-clamp techniques.
Individual Cardiac Myocytes:
The cardiac electro-pharmacologic effects of halofantrine, its stereoisomers and N-desbutylhalofantrine on repolarizing currents such as the delayed rectifier potassium channel were studied in feline ventricular myocytes in vitro by the method described by Woosley, et al. (JAMA 269:1532-1536 (1993)). Briefly, rod-shaped and quiescent ventricular cells were obtained and used for electrophysiological recordings using the whole cell, single-suction pipette, voltage-clamp ("patch-clamp") technique. Computer-controlled voltage clamp pulses (duration 750 ms) were used to elicit currents. Current signals were directed to a computer for storage and data analysis. […]

[2] = cited from earlier work; for arrhythmia torsades de pointes: in patients receiving the drug; for cardiotoxicity / potentially fatal arrhythmias: use for treatment of malaria
[3] = tested on: isolated perfused cat heart (QT interval); assay: QT interval prolongation in isolated perfused heart; conditions: concentrations from 1 to 20 μM, pacing cycle length 400 msec
Experimental: Comparative studies evaluating prolongation of the QT interval using quinidine, halofantrine, and desbutylhalofantrine were performed on isolated perfused animal hearts. […] The ability to treat malaria with this metabolite without causing cardiotoxicity greatly improves the safety of antimalarial treatment.
as §1
The effects of halofantrine and its metabolite on repolarization were examined in the isolated perfused cat heart by the method of Woosley, et al. (JAMA 269:1532-1536 (1993)). Briefly, hearts were obtained from healthy, mature anesthetized cats and perfused in a Lagendorff apparatus maintained at 37° C. […] The AV node was destroyed by cautery to produce complete heart block and allow observations at slow cycle lengths. […]

[4] = tested on: Plasmodium falciparum; assay: In vitro studies against various clones of Plasmodium falciparum; assay type: cell-based
Experimental: Dosage of 500 mg every six hours for three doses on day one with repeat of that dosage on day 7 for a total dosage of 3000 mg is appropriate for most treatment purposes in adults. However, total dosage range of 50 to 5000 mg can be given depending on the condition, age and size of the patient. Desbutylhalofantrine may also be given at dosage of 50 to 1000 mg as a prophylactic measure. Dosage may be given daily or one day per week. Again, dosage will be determined by the clinician in accord with the needs of the particular patient. When given as a prophylactic agent, the administration may be continued for several months.

[5] = tested on: malaria; conditions: teaching of U.S. Pat. No. 5,250,734 to Rossignol, et al; cited from earlier work

SMILES	arrhythmia torsades de pointes [2]	prolongation of the QT interval [3]	also measured
CCCCN(CCCC)CCC(O)c1cc2c(Cl)cc(Cl)cc2c2cc(C(F)(F)F)ccc12 (racemic) [halofantrine]	torsades de pointes has been seen in patients	resulted in prolongation of the QT interval	block of the delayed rectifier potassium channel [1]: produced a stereo-selective block of the delayed rectifier potassium channel; cardiotoxicity / potentially fatal arrhythmias [2]: can induce potentially fatal arrhythmias; cardiotoxicity / potentially fatal arrhythmias ([2]; listed as Halofantrine): has been shown to cause cardiotoxicity
CCN(CC)CCCC(C)Nc1ccnc2cc(Cl)ccc12 (centres unmarked) [chloroquine]	torsades de pointes has been seen in patients		
CCCCNCCC(O)c1cc2c(Cl)cc(Cl)cc2c2cc(C(F)(F)F)ccc12 (centres unmarked) [desbutylhalofantrine]		did not prolong the QT interval even when concentrations were increased to twenty fold the concentration at which halofantrine resulted in prolongation of the QT interval; also recorded: had minimal effect on the QT interval relative to the baseline	potency relative to parent compound halofantrine against clones of Plasmodium falciparum [4]: approximately equipotent with the parent compound; effectiveness for treatment of malaria relative to halofantrine [5]: less effective than halofantrine for treatment of malaria
C=C[C@H]1C[N@@]2CC[C@H]1C[C@@H]2[C@@H](O)c1ccnc2ccc(OC)cc12 [quinidine]	torsades de pointes has been seen in patients		
C=C[C@H]1C[N@@]2CC[C@H]1C[C@H]2[C@H](O)c1ccnc2ccc(OC)cc12 [quinine]	torsades de pointes has been seen in patients		
